Data: ChEMBL document CHEMBL1201861, “Genomics of Drug Sensitity in Cancer screening data, Wellcome Trust Sanger Institute”

How the values were obtained:
Assay in all cases: cells
[1] = tested on: DB; type: functional, cell-based, Homo sapiens; conditions: Homo sapiens, DB
Description: SANGER: Inhibition of human DB cell growth in a cell viability assay.

[2] = tested on: C2BBe1; type: functional, cell-based, Homo sapiens; conditions: Homo sapiens, C2BBe1;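 note: growth inhibition of C2BBe1 cells, read out through a viability assay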
Description: SANGER: Inhibition of human C2BBe1 cell growth in a cell viability assay.

[3] = tested on: DSH1; type: functional, cell-based, Homo sapiens; conditions: Homo sapiens, DSH1;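 note: growth inhibition of human DSH1 cells, measured with a cell viability readout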
Description: SANGER: Inhibition of human DSH1 cell growth in a cell viability assay.

[4] = tested on: SW 962; type: functional, cell-based, Homo sapiens; conditions: Homo sapiens, SW 962;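 note: growth inhibition of human SW962 cells, read out by a cell viability assay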
Description: SANGER: Inhibition of human SW962 cell growth in a cell viability assay.

[5] = tested on: IST-SL1; type: functional, cell-based, Homo sapiens; conditions: Homo sapiens, IST-SL1;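 note: growth inhibition of human IST-SL1 cells, read out with a cell viability assay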
Description: SANGER: Inhibition of human IST-SL1 cell growth in a cell viability assay.

[6] = tested on: HH; type: functional, cell-based, Homo sapiens; conditions: Homo sapiens, HH
Description: SANGER: Inhibition of human HH cell growth in a cell viability assay.

[7] = tested on: CCRF-CEM; type: functional, cell-based, Homo sapiens; conditions: Homo sapiens, CCRF-CEM;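 note: inhibition of CCRF-CEM cell growth, measured by a cell viability assay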
Description: SANGER: Inhibition of human CCRF-CEM cell growth in a cell viability assay.

[8] = tested on: NCI-H1838; type: functional, cell-based, Homo sapiens; conditions: Homo sapiens, NCI-H1838;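 note: growth inhibition of NCI-H1838 cells, determined with a cell viability readout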
Description: SANGER: Inhibition of human NCI-H1838 cell growth in a cell viability assay.

[9] = tested on: KM12; type: functional, cell-based, Homo sapiens; conditions: Homo sapiens, KM12;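 note: KM12 cell growth inhibition, read out with a cell viability assay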
Description: SANGER: Inhibition of human KM12 cell growth in a cell viability assay.

[10] = tested on: OVCAR-4; type: functional, cell-based, Homo sapiens; conditions: Homo sapiens, OVCAR-4;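 note: growth inhibition of human OVCAR-4 cells, measured with a cell viability assay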
Description: SANGER: Inhibition of human OVCAR-4 cell growth in a cell viability assay.

[11] = tested on: ES4; type: functional, cell-based, Homo sapiens; conditions: Homo sapiens, ES4;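 note: growth inhibition of human ES4 cells, read out by a cell viability assay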
Description: SANGER: Inhibition of human ES4 cell growth in a cell viability assay.

[12] = tested on: ETK-1; type: functional, cell-based, Homo sapiens; conditions: Homo sapiens, ETK-1;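 note: growth inhibition of human ETK-1 cells, read out with a cell viability assay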
Description: SANGER: Inhibition of human ETK-1 cell growth in a cell viability assay.

[13] = tested on: TGBC1TKB; type: functional, cell-based, Homo sapiens; conditions: Homo sapiens, TGBC1TKB;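 note: growth inhibition of TGBC1TKB cells, read out by a cell viability assay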
Description: SANGER: Inhibition of human TGBC1TKB cell growth in a cell viability assay.

[14] = tested on: HCC2157; type: functional, cell-based, Homo sapiens; conditions: Homo sapiens, HCC2157;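 note: growth inhibition of the cancer cell line, read out as cell viability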
Description: SANGER: Inhibition of human HCC2157 cell growth in a cell viability assay.

[15] = tested on: UACC-257; type: functional, cell-based, Homo sapiens; conditions: Homo sapiens, UACC-257
Description: SANGER: Inhibition of human UACC-257 cell growth in a cell viability assay.

[16] = tested on: LB771-HNC; type: functional, cell-based, Homo sapiens; conditions: Homo sapiens, LB771-HNC;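 note: growth inhibition of LB771-HNC human cells, read out with a cell viability assay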
Description: SANGER: Inhibition of human LB771-HNC cell growth in a cell viability assay.

[17] = tested on: SNU1; type: functional, cell-based, Homo sapiens; conditions: Homo sapiens, SNU1;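 note: growth inhibition of human NCI-SNU-1 cells, measured with a cell viability assay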
Description: SANGER: Inhibition of human NCI-SNU-1 cell growth in a cell viability assay.

[18] = tested on: MS-1; type: functional, cell-based, Homo sapiens; conditions: Homo sapiens, MS-1;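 note: growth inhibition of MS-1 cells, read out by cell viability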
Description: SANGER: Inhibition of human MS-1 cell growth in a cell viability assay.

[19] = tested on: SW872; type: functional, cell-based, Homo sapiens; conditions: Homo sapiens, SW872;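 note: growth inhibition of SW872 cells, read out by a viability assay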
Description: SANGER: Inhibition of human SW872 cell growth in a cell viability assay.

[20] = tested on: NCI-H720; type: functional, cell-based, Homo sapiens; conditions: Homo sapiens, NCI-H720;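 note: growth inhibition of human NCI-H720 cells determined by a cell viability assay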
Description: SANGER: Inhibition of human NCI-H720 cell growth in a cell viability assay.

[21] = tested on: DMS-114; type: functional, cell-based, Homo sapiens; conditions: Homo sapiens, DMS-114
[22] = tested on: ES3; type: functional, cell-based, Homo sapiens; conditions: Homo sapiens, ES3;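 note: growth inhibition of ES3 cells, read out with a cell viability assay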
Description: SANGER: Inhibition of human ES3 cell growth in a cell viability assay.

[23] = tested on: SNB-75; type: functional, cell-based, Homo sapiens; conditions: Homo sapiens, SNB-75;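 note: cell viability assay measuring growth inhibition of human SNB-75 cells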
Description: SANGER: Inhibition of human SNB75 cell growth in a cell viability assay.

[24] = tested on: KG-1; type: functional, cell-based, Homo sapiens; conditions: Homo sapiens, KG-1;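 note: growth inhibition of KG-1 cells, read out by a cell viability assay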
Description: SANGER: Inhibition of human KG-1 cell growth in a cell viability assay.

[25] = tested on: KU812 cell line; type: functional, cell-based, Homo sapiens; conditions: Homo sapiens, KU812;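 note: growth inhibition of KU812 cells, read out with a cell viability assay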
Description: SANGER: Inhibition of human KU812 cell growth in a cell viability assay.

[26] = tested on: NCI-H446; type: functional, cell-based, Homo sapiens; conditions: Homo sapiens, NCI-H446;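 note: growth inhibition of NCI-H446 cells determined by a cell viability assay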
Description: SANGER: Inhibition of human NCI-H446 cell growth in a cell viability assay.

[27] = tested on: MV4-11; type: functional, cell-based, Homo sapiens, MV-4-11; conditions: Homo sapiens, MV4-11;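 note: cell viability readout measuring growth inhibition of human MV-4-11 cells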
Description: SANGER: Inhibition of human MV-4-11 cell growth in a cell viability assay.

[28] = tested on: EC-GI-10; type: functional, cell-based, Homo sapiens; conditions: Homo sapiens, EC-GI-10
Description: SANGER: Inhibition of human EC-GI-10 cell growth in a cell viability assay.

[29] = tested on: RXF 393; type: functional, cell-based, Homo sapiens; conditions: Homo sapiens, RXF 393;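 note: growth inhibition of human RXF 393 cells, read out with a cell viability assay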
Description: SANGER: Inhibition of human RXF393 cell growth in a cell viability assay.

[30] = tested on: K5; type: functional, cell-based, Homo sapiens; conditions: Homo sapiens, K5
Description: SANGER: Inhibition of human K5 cell growth in a cell viability assay.

[31] = tested on: QIMR-WIL; type: functional, cell-based, Homo sapiens; conditions: Homo sapiens, QIMR-WIL;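 note: growth inhibition of QIMR-WIL cells, read out with a cell viability assay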
Description: SANGER: Inhibition of human QIMR-WIL cell growth in a cell viability assay.

[32] = tested on: NCI-H1648; type: functional, cell-based, Homo sapiens; conditions: Homo sapiens, NCI-H1648;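 note: cell viability assay measuring inhibition of NCI-H1648 cell growth, from the Sanger screening data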
Description: SANGER: Inhibition of human NCI-H1648 cell growth in a cell viability assay.

[33] = tested on: TGBC24TKB; type: functional, cell-based, Homo sapiens; conditions: Homo sapiens, TGBC24TKB;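 note: growth inhibition of human TGBC24TKB cells, read out with a cell viability assay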
Description: SANGER: Inhibition of human TGBC24TKB cell growth in a cell viability assay.

[34] = tested on: CAS-1; type: functional, cell-based, Homo sapiens; conditions: Homo sapiens, CAS-1;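 note: growth inhibition of CAS-1 cells, measured with a cell viability assay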
Description: SANGER: Inhibition of human CAS-1 cell growth in a cell viability assay.

[35] = tested on: EW-24; type: functional, cell-based, Homo sapiens; conditions: Homo sapiens, EW-24;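 note: human EW-24 cancer cell line, growth inhibition read out via a cell viability assay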
Description: SANGER: Inhibition of human EW-24 cell growth in a cell viability assay.

[36] = tested on: Calu-6; type: functional, cell-based, Homo sapiens; conditions: Homo sapiens, Calu-6;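 note: growth of human Calu-6 cells, read out by a cell viability assay, IC50 marking inhibition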
Description: SANGER: Inhibition of human Calu-6 cell growth in a cell viability assay.

[37] = tested on: LOX IMVI; type: functional, cell-based, Homo sapiens; conditions: Homo sapiens, LOX IMVI
Description: SANGER: Inhibition of human LOXIMVI cell growth in a cell viability assay.

[38] = tested on: SF-539; type: functional, cell-based, Homo sapiens; conditions: Homo sapiens, SF-539;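 note: Read-out is a cell viability assay, with IC50 reflecting inhibition of cell growth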
Description: SANGER: Inhibition of human SF539 cell growth in a cell viability assay.

[39] = tested on: AM-38; type: functional, cell-based, Homo sapiens; conditions: Homo sapiens, AM-38;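 note: growth inhibition of AM-38 cells of human origin, read out by a cell viability assay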
Description: SANGER: Inhibition of human AM-38 cell growth in a cell viability assay.

[40] = tested on: TE-9; type: functional, cell-based, Homo sapiens; conditions: Homo sapiens, TE-9;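 note: cell growth inhibition, measured with a cell viability readout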
Description: SANGER: Inhibition of human TE-9 cell growth in a cell viability assay.

[41] = tested on: LU-134-A; type: functional, cell-based, Homo sapiens; conditions: Homo sapiens, LU-134-A
Description: SANGER: Inhibition of human LU-134-A cell growth in a cell viability assay.

[42] = tested on: TE-10; type: functional, cell-based, Homo sapiens; conditions: Homo sapiens, TE-10;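 note: growth inhibition of TE-10 cells, measured by a cell viability assay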
Description: SANGER: Inhibition of human TE-10 cell growth in a cell viability assay.

[43] = tested on: MC116; type: functional, cell-based, Homo sapiens; conditions: Homo sapiens, MC116;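 note: growth inhibition of MC116 cells, read out with a cell viability assay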
Description: SANGER: Inhibition of human MC116 cell growth in a cell viability assay.

[44] = tested on: OMC-1; type: functional, cell-based, Homo sapiens; conditions: Homo sapiens, OMC-1;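 note: growth inhibition of the OMC-1 cell line, measured by a cell viability assay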
Description: SANGER: Inhibition of human OMC-1 cell growth in a cell viability assay.

[45] = tested on: SK-LMS-1; type: functional, cell-based, Homo sapiens; conditions: Homo sapiens, SK-LMS-1;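 note: growth inhibition of human SK-LMS-1 cells, read out with a cell viability assay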
Description: SANGER: Inhibition of human SK-LMS-1 cell growth in a cell viability assay.

[46] = tested on: HT; type: functional, cell-based, Homo sapiens; conditions: Homo sapiens, HT
Description: SANGER: Inhibition of human HT cell growth in a cell viability assay.

[47] = tested on: NCI-H1581; type: functional, cell-based, Homo sapiens; conditions: Homo sapiens, NCI-H1581;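 note: cell growth inhibition read out by a viability assay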
Description: SANGER: Inhibition of human NCI-H1581 cell growth in a cell viability assay.

[48] = tested on: L-428; type: functional, cell-based, Homo sapiens; conditions: Homo sapiens, L-428
Description: SANGER: Inhibition of human L-428 cell growth in a cell viability assay.

[49] = tested on: NOMO-1; type: functional, cell-based, Homo sapiens; conditions: Homo sapiens, NOMO-1;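 note: growth inhibition of human NOMO-1 cells measured by a cell viability assay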
Description: SANGER: Inhibition of human NOMO-1 cell growth in a cell viability assay.

Structure (SMILES): CCN(CC)CCNC(=O)c1c(C)[nH]c(/C=C2\C(=O)Nc3ccc(F)cc32)c1C [SUNITINIB]
- IC50 [1]: > 8 µM
- IC50 [2]: > 8 µM
- IC50 [3]: > 8 µM
- IC50 [4]: > 8 µM
- IC50 [5]: > 8 µM
- IC50 [6]: 4.21 µM
- IC50 [7]: > 8 µM
- IC50 [8]: > 8 µM
- IC50 [9]: 350 nM
- IC50 [10]: > 8 µM
- IC50 [11]: 2.81 µM
- IC50 [12]: 1290 nM
- IC50 [13]: > 8 µM
- IC50 [14]: > 8 µM
- IC50 [15]: > 8 µM
- IC50 [16]: > 8 µM
- IC50 [17]: > 8 µM
- IC50 [18]: 3.84 µM
- IC50 [19]: > 8 µM
- IC50 [20]: > 8 µM
- IC50 [21]: > 8 µM
- IC50 [22]: > 8 µM
- IC50 [23]: > 8 µM
- IC50 [24]: 6.03 µM
- IC50 [25]: 6.69 µM
- IC50 [26]: > 8 µM
- IC50 [27]: < 0.0312 µM
- IC50 [28]: > 8 µM
- IC50 [29]: > 8 µM
- IC50 [30]: > 8 µM
- IC50 [31]: 3.63 µM
- IC50 [32]: > 8 µM
- IC50 [33]: > 8 µM
- IC50 [34]: > 8 µM
- IC50 [35]: > 8 µM
- IC50 [36]: > 8 µM
- IC50 [37]: > 8 µM
- IC50 [38]: > 8 µM
- IC50 [39]: > 8 µM
- IC50 [40]: > 8 µM
- IC50 [41]: > 8 µM
- IC50 [42]: 2340 nM
- IC50 [43]: 4.43 µM
- IC50 [44]: > 8 µM
- IC50 [45]: 3.83 µM
- IC50 [46]: > 8 µM
- IC50 [47]: > 8 µM
- IC50 [48]: > 8 µM
- IC50 [49]: 4.34 µM

Structure (SMILES): Oc1ccc2ccccc2c1SSc1c(O)ccc2ccccc12
- IC50 [1]: 12.7 µM
- IC50 [2]: > 32 µM
- IC50 [3]: > 32 µM
- IC50 [4]: > 32 µM
- IC50 [5]: > 32 µM
- IC50 [6]: 10.8 µM
- IC50 [7]: 5.98 µM
- IC50 [8]: > 32 µM
- IC50 [9]: > 32000 nM
- IC50 [10]: > 32 µM
- IC50 [11]: 26.3 µM
- IC50 [12]: > 32000 nM
- IC50 [13]: > 32 µM
- IC50 [14]: > 32 µM
- IC50 [15]: > 32 µM
- IC50 [16]: > 32 µM
- IC50 [17]: > 32 µM
- IC50 [18]: > 32 µM
- IC50 [19]: 7.84 µM
- IC50 [20]: > 32 µM
- IC50 [21]: > 32 µM
- IC50 [22]: 11.4 µM
- IC50 [23]: > 32 µM
- IC50 [24]: > 32 µM
- IC50 [25]: 2.76 µM
- IC50 [26]: > 32 µM
- IC50 [27]: 9.16 µM
- IC50 [28]: > 32 µM
- IC50 [29]: > 32 µM
- IC50 [30]: > 32 µM
- IC50 [31]: 2.91 µM
- IC50 [32]: > 32 µM
- IC50 [33]: > 32 µM
- IC50 [34]: > 32 µM
- IC50 [35]: > 32 µM
- IC50 [36]: > 32 µM
- IC50 [37]: > 32 µM
- IC50 [38]: > 32 µM
- IC50 [39]: 21.7 µM
- IC50 [40]: > 32 µM
- IC50 [41]: > 32 µM
- IC50 [42]: > 32000 nM
- IC50 [43]: > 32 µM
- IC50 [44]: > 32 µM
- IC50 [45]: 14.8 µM
- IC50 [46]: > 32 µM
- IC50 [47]: > 32 µM
- IC50 [48]: > 32 µM
- IC50 [49]: > 32 µM
